Measured values reported in patent US20240059689A1, “PURINE DERIVATIVES AS ANTICANCER AGENTS” (Tango Therapeutics, Inc., priority 2021, published 2024).

What was measured:
HCC1954 = assay: Viability assay, BRCA1 WT cell line HCC1954; assay type: cell-based; details: Homo sapiens, HCC1954, viability, read-out: HCC1954 rel IC50
From the text: (§1) Table 1 also indicates IC50 values in a viability assay for a non-isogenic pair of BRCA1 mutant (column 5-MDA-MB-436) and BRCA1 WT (column 6—HCC1954) cell lines. These values indicate the effect of treatment with compound on cell survival.

monoubiquitinated PCNA = assay: AlphaLISA assay measuring monoubiquitinated PCNA in MDA-MB-436; assay type: cell-based; details: Homo sapiens, MDA-MB-436, monoubiquitinated PCNA, read-out: Alpha Lisa IC50
From the text: Table 1 also indicates IC50 values for exemplary compounds in an AlphaLISA assay measuring monoubiquitinated PCNA in a BRCA1 mutant cell line (MDA-MB-436; column 7).

USP1-UAF1 = USP1-UAF1 (Homo sapiens, UniProt O94782); assay: Ubiquitin Rhodamine assay of USP1-UAF1 activity; assay type: biochemical
Description: Certain compounds of the disclosure were assessed for USP1-UAF1 activity in a Ubiquitin Rhodamine assay as described in Biology Example 1.

MDA-MB-436 = assay: Viability assay, BRCA1 mutant cell line MDA-MB-436; assay type: cell-based; details: Homo sapiens, MDA-MB-436, viability, BRCA1 mutant MDA-MB-436; read-out: MDA-MB-436 rel IC50
From the text: as §1

USP1-UAF1, sequence (O94782 whole entry): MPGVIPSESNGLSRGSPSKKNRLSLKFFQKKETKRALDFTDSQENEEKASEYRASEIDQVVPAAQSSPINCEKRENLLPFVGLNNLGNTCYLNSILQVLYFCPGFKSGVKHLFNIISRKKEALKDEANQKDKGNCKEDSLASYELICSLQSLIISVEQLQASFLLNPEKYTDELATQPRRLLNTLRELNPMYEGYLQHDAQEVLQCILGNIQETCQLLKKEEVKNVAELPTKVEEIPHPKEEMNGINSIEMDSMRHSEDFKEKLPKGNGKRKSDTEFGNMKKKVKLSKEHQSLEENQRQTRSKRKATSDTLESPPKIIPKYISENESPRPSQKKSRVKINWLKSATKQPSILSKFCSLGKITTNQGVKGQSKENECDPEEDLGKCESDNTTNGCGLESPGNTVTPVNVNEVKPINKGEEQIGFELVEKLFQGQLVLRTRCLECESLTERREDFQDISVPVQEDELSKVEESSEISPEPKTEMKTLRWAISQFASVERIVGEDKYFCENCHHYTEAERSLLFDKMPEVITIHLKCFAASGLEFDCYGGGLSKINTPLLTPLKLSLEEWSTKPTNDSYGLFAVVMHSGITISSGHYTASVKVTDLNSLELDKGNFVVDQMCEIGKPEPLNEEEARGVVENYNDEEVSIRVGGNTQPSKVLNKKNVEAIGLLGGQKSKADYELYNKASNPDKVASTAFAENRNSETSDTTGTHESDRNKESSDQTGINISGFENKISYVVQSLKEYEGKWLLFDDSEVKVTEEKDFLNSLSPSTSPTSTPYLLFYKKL
USP1-UAF1, sequence (Q8TAF3 whole entry partner): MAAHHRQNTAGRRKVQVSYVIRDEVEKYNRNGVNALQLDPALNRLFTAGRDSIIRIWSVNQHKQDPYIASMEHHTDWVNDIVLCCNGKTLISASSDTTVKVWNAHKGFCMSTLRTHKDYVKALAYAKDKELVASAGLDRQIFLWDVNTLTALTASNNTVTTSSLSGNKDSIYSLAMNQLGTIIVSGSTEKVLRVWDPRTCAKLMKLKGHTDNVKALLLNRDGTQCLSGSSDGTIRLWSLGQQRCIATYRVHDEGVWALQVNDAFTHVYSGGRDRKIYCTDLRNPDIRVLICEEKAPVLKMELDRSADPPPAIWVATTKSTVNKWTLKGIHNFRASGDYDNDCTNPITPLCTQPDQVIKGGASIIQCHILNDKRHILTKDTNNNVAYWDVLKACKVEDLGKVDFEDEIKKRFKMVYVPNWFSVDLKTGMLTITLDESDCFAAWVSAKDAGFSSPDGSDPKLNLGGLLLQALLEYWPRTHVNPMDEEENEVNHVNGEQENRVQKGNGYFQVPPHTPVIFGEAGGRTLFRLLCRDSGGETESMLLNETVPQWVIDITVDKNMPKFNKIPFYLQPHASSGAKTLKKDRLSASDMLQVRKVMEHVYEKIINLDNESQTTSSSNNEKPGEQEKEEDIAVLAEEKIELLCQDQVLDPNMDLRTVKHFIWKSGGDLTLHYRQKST

| IC50 (HCC1954) [µM] | IC50 (monoubiquitinated PCNA) [nM] | IC50 (USP1-UAF1) [nM] | IC50 (MDA-MB-436) [nM] | Structure (SMILES) |
| --- | --- | --- | --- | --- |
| 0.25 to 10 | 250 to 10000 | 30 to 100 | 250 to 10000 | CC(C)c1ccccc1-c1nc(C(N)=O)c2c(n1)n(Cc1ccc(-c3nc(C(F)(F)F)cn3C)cc1)c(=N)n2C [Example A-41, 8-imino-2-(2-isopropylphenyl)-7-methyl-9-(4-(1-methyl-4-(trifluoromethyl)-1H-imidazol-2-yl)benzyl)-8,9-dihydro-7H-purine-6-carboxamide] |
| 0.25 to 10 | 100 to 250 | 30 to 100 | 250 to 10000 | C=C(C)c1ccc(F)cc1-c1nc(C)c2c(n1)n(Cc1ccc(-c3nc(C(F)(F)F)cn3C)cc1)c(=N)n2C [Example A-42, 2-(5-fluoro-2-(prop-1-en-2-yl)phenyl)-6,7-dimethyl-9-(4-(1-methyl-4-(trifluoromethyl)-1H-imidazol-2-yl)benzyl)-7,9-dihydro-8H-purin-8-imine] |
| 0.25 to 10 | 250 to 10000 | 30 to 100 | 250 to 10000 | C=C(C)c1ccc(F)cc1-c1nc(C)c2c(n1)n(Cc1ccc(-c3nc(Cl)cn3C)cc1)c(=N)n2C [Example A-44, 9-(4-(4-chloro-1-methyl-1H-imidazol-2-yl)benzyl)-2-(5-fluoro-2-(prop-1-en-2-yl)phenyl)-6,7-dimethyl-7,9-dihydro-8H-purin-8-imine] |
| 0.25 to 10 | 100 to 250 | 100 to 10000 | 100 to 250 | CC(C)c1ccccc1-c1ncc2c(n1)n(CC1CCN(c3nc(C(F)(F)F)cn3C)CC1)c(=N)n2C [Example B-1, 2-(2-isopropylphenyl)-7-methyl-9-((1-(1-methyl-4-(trifluoromethyl)-1H-imidazol-2-yl)piperidin-4-yl)methyl)-7H-purin-8(9H)-imine] |
| ≥ 10 | < 100 | < 30 | < 100 | CC(C)c1ccccc1-c1ncc2c(n1)n(Cc1ccc(-c3nc(C(F)(F)F)cn3C)cc1)c(=N)n2C [Example B-2, 2-(2-isopropylphenyl)-7-methyl-9-(4-(1-methyl-4-(trifluoromethyl)-1H-imidazol-2-yl)benzyl)-7H-purin-8(9H)-imine] |
| 0.25 to 10 | 250 to 10000 | 100 to 10000 | 250 to 10000 | Cn1cc(C(F)(F)F)nc1-c1ccc(Cn2c(=N)n(C)c3cnc(-c4ccccc4)nc32)cc1 [Example B-3, 7-methyl-9-(4-(1-methyl-4-(trifluoromethyl)-1H-imidazol-2-yl)benzyl)-2-phenyl-7,9-dihydro-8H-purin-8-imine] |
| ≥ 10 | < 100 | < 30 | < 100 | C=C(C)c1ccccc1-c1ncc2c(n1)n(Cc1ccc(-c3nc(C(F)(F)F)cn3C)cc1)c(=N)n2C [Example B-4, 7-methyl-9-(4-(1-methyl-4-(trifluoromethyl)-1H-imidazol-2-yl)benzyl)-2-(2-(prop-1-en-2-yl)phenyl)-7,9-dihydro-8H-purin-8-imine] |
| 0.25 to 10 | 100 to 250 | < 30 | 100 to 250 | Cn1cc(C(F)(F)F)nc1-c1ccc(Cn2c(=N)n(C)c3cnc(-c4c(Cl)cccc4Cl)nc32)cc1 [Example B-5, 2-(2,6-dichlorophenyl)-7-methyl-9-(4-(1-methyl-4-(trifluoromethyl)-1H-imidazol-2-yl)benzyl)-7,9-dihydro-8H-purin-8-imine] |
| ≥ 10 | 100 to 250 | 30 to 100 | 100 to 250 | Cn1cc(C(F)(F)F)nc1-c1ccc(Cn2c(=N)n(C)c3cnc(-c4ccccc4Cl)nc32)cc1 [Example B-8, 2-(2-chlorophenyl)-7-methyl-9-(4-(1-methyl-4-(trifluoromethyl)-1H-imidazol-2-yl)benzyl)-7,9-dihydro-8H-purin-8-imine] |
| 0.25 to 10 | < 100 | < 30 | < 100 | CC(C)c1c(F)cccc1-c1ncc2c(n1)n(Cc1ccc(-c3nc(C(F)(F)F)cn3C)cc1)c(=N)n2C [Example B-9, 2-(3-fluoro-2-isopropylphenyl)-7-methyl-9-(4-(1-methyl-4-(trifluoromethyl)-1H-imidazol-2-yl)benzyl)-7,9-dihydro-8H-purin-8-imine] |
| 0.25 to 10 | 100 to 250 | < 30 | 100 to 250 | CC(C)c1cc(F)ccc1-c1ncc2c(n1)n(Cc1ccc(-c3nc(C(F)(F)F)cn3C)cc1)c(=N)n2C [Example B-10, 2-(4-fluoro-2-isopropylphenyl)-7-methyl-9-(4-(1-methyl-4-(trifluoromethyl)-1H-imidazol-2-yl)benzyl)-7,9-dihydro-8H-purin-8-imine] |
| 0.25 to 10 | < 100 | < 30 | 100 to 250 | CC(C)c1ccc(F)cc1-c1ncc2c(n1)n(Cc1ccc(-c3nc(C(F)(F)F)cn3C)cc1)c(=N)n2C [Example B-11, 2-(5-fluoro-2-isopropylphenyl)-7-methyl-9-(4-(1-methyl-4-(trifluoromethyl)-1H-imidazol-2-yl)benzyl)-7,9-dihydro-8H-purin-8-imine] |
| 0.25 to 10 | 250 to 10000 | 30 to 100 | 250 to 10000 | Cn1cc(C(F)(F)F)nc1-c1ccc(Cn2c(=N)n(C)c3cnc(-c4ccc(F)cc4OC(F)F)nc32)cc1 [Example T-001, 2-[2-(difluoromethoxy)-4-fluoro-phenyl]-7-methyl-9-[[4-[1-methyl-4-(trifluoromethyl)imidazol-2-yl]phenyl]methyl]purin-8-imine] |
| 0.25 to 10 | 250 to 10000 | 30 to 100 | 100 to 250 | Cc1cccc(-c2ncc3c(n2)n(Cc2ccc(-c4nc(C(F)(F)F)cn4C)cc2)c(=N)n3C)c1C(C)C [Example T-002, 2-(2-isopropyl-3-methyl-phenyl)-7-methyl-9-[[4-[1-methyl-4-(trifluoromethyl)imidazol-2-yl]phenyl]methyl]purin-8-imine] |
| 0.25 to 10 | < 100 | < 30 | < 100 | CC(C)c1ccccc1-c1ncc2c(n1)n(C1(c3ccc(-c4nc(C(F)(F)F)cn4C)cc3)CC1)c(=N)n2C [Example T-003, 2-(2-isopropylphenyl)-7-methyl-9-[1-[4-[1-methyl-4-(trifluoromethyl)imidazol-2-yl]phenyl]cyclopropyl]purin-8-imine] |
| 0.25 to 10 | 100 to 250 | 30 to 100 | 250 to 10000 | COc1cc(C(F)(F)F)nn1-c1ccc(Cn2c(=N)n(C)c3cnc(-c4ccccc4C(F)(F)F)nc32)cc1 [Example T-004] |
| ≥ 10 | 100 to 250 | 30 to 100 | 100 to 250 | COc1nccc(C#N)c1-c1ncc2c(n1)n(Cc1ccc(-c3nc(C(F)(F)F)cn3C)cc1)c(=N)n2C [Example T-008] |
| ≥ 10 | 100 to 250 | 30 to 100 | 250 to 10000 | Cn1cc(C(F)(F)F)nc1-c1ccc(Cn2c(=N)n(C)c3cnc(-c4cccnc4C4CC4)nc32)cc1 [Example T-009, 2-(2-cyclopropyl-3-pyridyl)-7-methyl-9-[[4-[1-methyl-4-(trifluoromethyl)imidazol-2-yl]phenyl]methyl]purin-8-imine] |
| 0.25 to 10 | 250 to 10000 | 30 to 100 | 250 to 10000 | Cn1cc(C(F)(F)F)nc1-c1ccc(Cn2c(=N)n(C)c3cnc(-c4cccc5c4OC(F)(F)O5)nc32)cc1 [Example T-011, 2-(2,2-difluoro-1,3-benzodioxol-4-yl)-7-methyl-9-[[4-[1-methyl-4-(trifluoromethyl)imidazol-2-yl]phenyl]methyl]purin-8-imine] |
| ≥ 10 | 250 to 10000 | 100 to 10000 | 250 to 10000 | COc1ncc(F)cc1-c1ncc2c(n1)n(Cc1ccc(-c3nc(C(F)(F)F)cn3C)cc1)c(=N)n2C [Example T-013] |
| ≥ 10 | 100 to 250 | < 30 | 100 to 250 | Cc1cccc(C(C)C)c1-c1ncc2c(n1)n(Cc1ccc(-c3nc(C(F)(F)F)cn3C)cc1)c(=N)n2C [Example T-015, 2-(2-isopropyl-6-methyl-phenyl)-7-methyl-9-[[4-[1-methyl-4-(trifluoromethyl)imidazol-2-yl]phenyl]methyl]purin-8-imine] |
| ≥ 10 | < 100 | < 30 | < 100 | COCCn1c(=N)n(Cc2ccc(-c3nc(C(F)(F)F)cn3C)cc2)c2nc(-c3ccccc3C(C)C)ncc21 [Example T-016] |
| 0.25 to 10 | 250 to 10000 | 30 to 100 | 250 to 10000 | Cc1ccc(C(C)C)c(-c2ncc3c(n2)n(Cc2ccc(-c4nc(C(F)(F)F)cn4C)cc2)c(=N)n3C)c1 [Example T-018, 2-(2-isopropyl-5-methyl-phenyl)-7-methyl-9-[[4-[1-methyl-4-(trifluoromethyl)imidazol-2-yl]phenyl]methyl]purin-8-imine] |
| ≥ 10 | < 100 | 100 to 10000 | 100 to 250 | COc1ncnc(C2CC2)c1-c1ncc2c(n1)n(Cc1ccc(-c3nc(C(F)(F)F)cn3C)cc1)c(=N)n2C [Example T-019, 2-(4-cyclopropyl-6-methoxy-pyrimidin-5-yl)-7-methyl-9-[[4-[1-methyl-4-(trifluoromethyl)imidazol-2-yl]phenyl]methyl]purin-8-imine] |
| 0.25 to 10 | 250 to 10000 | 100 to 10000 | 250 to 10000 | COc1cc(C)n(-c2ccc(Cn3c(=N)n(C)c4cnc(-c5ccccc5C5CC5)nc43)cc2)n1 [Example T-020] |
